ChEMBL document CHEMBL4507259 (2021)

Tests used:
[1] = target: Ca2+ channel (L, diltiazem site) (benzothiazepines); voltage-gated L-type calcium channel (family) (Homo sapiens, UniProt O60840+Q01668+Q13698+Q13936); assay: Ca2+ channel (L, diltiazem site) (benzothiazepines) CEREP ligand profiling; assay type: protein assay; settings: compound concentration 10 uM
[2] = target: Histamine H2 receptor (Homo sapiens) (UniProt P25021); assay: H2 (h) CEREP ligand profiling; settings: filed as antagonist, Compound concentration 10.0 uM
[3] = tested on: Tyrosine-protein kinase ABL1 (Homo sapiens), P00519 [F317I]; settings: Compound concentration 1000.0 nM
[4] = target: Tyrosine-protein kinase ABL2 (Homo sapiens) (UniProt P42684); settings: Compound concentration 1000.0 nM
[5] = target: ALK tyrosine kinase receptor (Homo sapiens) (UniProt Q9UM73); settings: Compound concentration 1000.0 nM
[6] = target: Bone morphogenetic protein receptor type-2 (Homo sapiens) (UniProt Q13873); settings: Compound concentration 1000.0 nM
[7] = target: Cytoplasmic tyrosine-protein kinase BMX (Homo sapiens) (UniProt P51813); settings: Compound concentration 1000.0 nM
[8] = target: Calcium/calmodulin-dependent protein kinase type 1D (Homo sapiens) (UniProt Q8IU85); settings: Compound concentration 1000.0 nM
[9] = target: Calcium/calmodulin-dependent protein kinase type II subunit alpha (Homo sapiens) (UniProt Q9UQM7); settings: Compound concentration 1000.0 nM
[10] = target: Calcium/calmodulin-dependent protein kinase type II subunit delta (Homo sapiens) (UniProt Q13557); settings: Compound concentration 1000.0 nM
[11] = target: Peripheral plasma membrane protein CASK (Homo sapiens) (UniProt O14936); settings: Compound concentration 1000.0 nM
[12] = target: Dual specificity protein kinase CLK2 (Homo sapiens) (UniProt P49760); settings: Compound concentration 1000.0 nM
[13] = target: Dual specificity protein kinase CLK3 (Homo sapiens) (UniProt P49761); settings: Compound concentration 1000.0 nM
[14] = target: Ephrin type-A receptor 5 (Homo sapiens) (UniProt P54756); settings: Compound concentration 1000.0 nM
[15] = target: Ephrin type-B receptor 1 (Homo sapiens) (UniProt P54762); settings: Compound concentration 1000.0 nM
[16] = target: Tyrosine-protein kinase Fer (Homo sapiens) (UniProt P16591); settings: Compound concentration 1000.0 nM
[17] = target: Tyrosine-protein kinase Fes/Fps (Homo sapiens) (UniProt P07332); settings: Compound concentration 1000.0 nM
[18] = target: Tyrosine-protein kinase FRK (Homo sapiens) (UniProt P42685); settings: Compound concentration 1000.0 nM
[19] = target: Interleukin-1 receptor-associated kinase 3 (Homo sapiens) (UniProt Q9Y616); settings: Compound concentration 1000.0 nM
[20] = target: Tyrosine-protein kinase JAK1 (Homo sapiens) (UniProt P23458); settings: Compound concentration 1000.0 nM
[21] = target: Mast/stem cell growth factor receptor Kit (Homo sapiens) (UniProt P10721); settings: Compound concentration 1000.0 nM
[22] = target: LIM domain kinase 1 (Homo sapiens) (UniProt P53667); settings: Compound concentration 1000.0 nM
[23] = target: LIM domain kinase 2 (Homo sapiens) (UniProt P53671); settings: Compound concentration 1000.0 nM
[24] = target: Leukocyte tyrosine kinase receptor (Homo sapiens) (UniProt P29376); settings: Compound concentration 1000.0 nM
[25] = target: Mitogen-activated protein kinase kinase kinase 13 (Homo sapiens) (UniProt O43283); settings: Compound concentration 1000.0 nM
[26] = target: Mitogen-activated protein kinase kinase kinase kinase 4 (Homo sapiens) (UniProt O95819); settings: Compound concentration 1000.0 nM
[27] = target: Serine/threonine-protein kinase MARK2 (Homo sapiens) (UniProt Q7KZI7); settings: Compound concentration 1000.0 nM
[28] = target: Myosin light chain kinase (Homo sapiens) (UniProt Q32MK0); settings: Compound concentration 1000.0 nM
[29] = target: Myosin light chain kinase family member 4 (Homo sapiens) (UniProt Q86YV6); settings: Compound concentration 1000.0 nM
[30] = target: Myosin-IIIb (Homo sapiens) (UniProt Q8WXR4); settings: Compound concentration 1000.0 nM
[31] = target: Mitogen-activated protein kinase 14 (Homo sapiens) (UniProt Q16539); settings: Compound concentration 1000.0 nM
[32] = target: Serine/threonine-protein kinase PAK 6 (Homo sapiens) (UniProt Q9NQU5); settings: Compound concentration 1000.0 nM
[33] = tested on: Phosphatidylinositol 4,5-bisphosphate 3-kinase catalytic subunit alpha isoform (Homo sapiens), P42336 [C420R]; settings: Compound concentration 1000.0 nM
[34] = tested on: Phosphatidylinositol 4,5-bisphosphate 3-kinase catalytic subunit alpha isoform (Homo sapiens), P42336 [M1043I]; settings: Compound concentration 1000.0 nM
[35] = target: Serine/threonine-protein kinase pim-3 (Homo sapiens) (UniProt Q86V86); settings: Compound concentration 1000.0 nM
[36] = target: RAF proto-oncogene serine/threonine-protein kinase (Homo sapiens) (UniProt P04049); settings: Compound concentration 1000.0 nM
[37] = tested on: Proto-oncogene tyrosine-protein kinase receptor Ret (Homo sapiens), P07949 [V804M]; settings: Compound concentration 1000.0 nM
[38] = target: Ribosomal protein S6 kinase alpha-6 (Homo sapiens) (UniProt Q9UK32); settings: Compound concentration 1000.0 nM
[39] = target: STE20-like serine/threonine-protein kinase (Homo sapiens) (UniProt Q9H2G2); settings: Compound concentration 1000.0 nM
[40] = target: Serine/threonine-protein kinase tousled-like 1 (Homo sapiens) (UniProt Q9UKI8); settings: Compound concentration 1000.0 nM
[41] = target: Tyrosine-protein kinase TXK (Homo sapiens) (UniProt P42681); settings: Compound concentration 1000.0 nM
[42] = target: Serine/threonine-protein kinase WNK1 (Homo sapiens) (UniProt Q9H4A3); settings: Compound concentration 1000.0 nM
[43] = target: Kappa-type opioid receptor (Homo sapiens) (UniProt P41145); settings: Compound concentration 10.0 uM
[44] = target: Alpha-2C adrenergic receptor (Homo sapiens) (UniProt P18825); settings: Compound concentration 10.0 uM

Chain of Cytoplasmic tyrosine-protein kinase BMX (Homo sapiens) (P51813 whole entry): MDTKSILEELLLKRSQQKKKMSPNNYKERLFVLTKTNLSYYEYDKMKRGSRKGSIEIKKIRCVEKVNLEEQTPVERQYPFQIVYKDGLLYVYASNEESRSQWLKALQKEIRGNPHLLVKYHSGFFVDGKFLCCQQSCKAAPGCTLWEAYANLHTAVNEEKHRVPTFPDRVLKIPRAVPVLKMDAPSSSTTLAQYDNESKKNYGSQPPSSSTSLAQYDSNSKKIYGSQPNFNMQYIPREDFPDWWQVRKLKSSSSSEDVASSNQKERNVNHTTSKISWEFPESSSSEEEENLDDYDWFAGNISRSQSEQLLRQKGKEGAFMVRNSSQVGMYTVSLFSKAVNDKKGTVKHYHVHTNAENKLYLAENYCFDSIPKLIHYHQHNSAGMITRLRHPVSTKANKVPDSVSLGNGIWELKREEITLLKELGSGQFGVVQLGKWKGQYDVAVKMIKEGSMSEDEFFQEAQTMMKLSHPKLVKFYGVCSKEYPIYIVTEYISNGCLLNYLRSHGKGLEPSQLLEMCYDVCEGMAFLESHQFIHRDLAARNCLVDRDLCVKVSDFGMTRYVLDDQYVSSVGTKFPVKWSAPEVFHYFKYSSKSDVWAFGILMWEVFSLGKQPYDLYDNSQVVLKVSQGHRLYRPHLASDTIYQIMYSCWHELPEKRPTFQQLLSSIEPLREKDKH
Chain of Calcium/calmodulin-dependent protein kinase type II subunit delta (Homo sapiens) (Q13557 whole entry): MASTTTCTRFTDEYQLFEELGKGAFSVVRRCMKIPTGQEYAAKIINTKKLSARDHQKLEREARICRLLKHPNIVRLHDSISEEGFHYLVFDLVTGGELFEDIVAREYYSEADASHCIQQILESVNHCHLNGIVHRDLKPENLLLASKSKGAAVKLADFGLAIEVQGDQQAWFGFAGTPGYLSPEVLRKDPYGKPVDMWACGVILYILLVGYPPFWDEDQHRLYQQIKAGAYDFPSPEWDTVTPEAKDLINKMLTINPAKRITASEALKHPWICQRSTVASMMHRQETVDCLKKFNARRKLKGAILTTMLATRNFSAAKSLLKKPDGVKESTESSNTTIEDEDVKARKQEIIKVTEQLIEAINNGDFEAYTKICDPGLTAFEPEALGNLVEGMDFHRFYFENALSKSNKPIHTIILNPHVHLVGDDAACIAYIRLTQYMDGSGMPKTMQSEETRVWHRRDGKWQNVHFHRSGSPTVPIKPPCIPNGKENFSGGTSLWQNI
Chain of Ribosomal protein S6 kinase alpha-6 (Homo sapiens) (Q9UK32 whole entry): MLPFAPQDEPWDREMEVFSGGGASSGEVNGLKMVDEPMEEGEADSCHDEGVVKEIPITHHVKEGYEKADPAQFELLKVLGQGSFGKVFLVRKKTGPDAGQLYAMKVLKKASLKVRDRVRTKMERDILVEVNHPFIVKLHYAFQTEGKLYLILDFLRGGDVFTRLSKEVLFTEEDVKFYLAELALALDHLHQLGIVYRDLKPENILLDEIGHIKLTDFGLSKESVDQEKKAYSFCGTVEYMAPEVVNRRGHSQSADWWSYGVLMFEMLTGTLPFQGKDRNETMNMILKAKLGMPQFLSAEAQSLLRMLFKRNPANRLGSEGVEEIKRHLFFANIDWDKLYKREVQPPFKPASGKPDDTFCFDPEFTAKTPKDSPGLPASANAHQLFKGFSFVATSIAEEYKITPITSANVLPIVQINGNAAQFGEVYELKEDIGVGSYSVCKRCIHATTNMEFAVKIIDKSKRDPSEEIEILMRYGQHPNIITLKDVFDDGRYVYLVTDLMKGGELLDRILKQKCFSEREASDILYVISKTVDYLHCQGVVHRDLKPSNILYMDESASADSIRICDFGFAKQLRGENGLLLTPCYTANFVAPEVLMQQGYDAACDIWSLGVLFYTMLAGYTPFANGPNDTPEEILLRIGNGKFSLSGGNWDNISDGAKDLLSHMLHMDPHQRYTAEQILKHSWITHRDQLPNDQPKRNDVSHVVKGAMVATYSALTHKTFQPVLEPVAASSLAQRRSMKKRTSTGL
Chain of Kappa-type opioid receptor (Homo sapiens) (P41145 whole entry): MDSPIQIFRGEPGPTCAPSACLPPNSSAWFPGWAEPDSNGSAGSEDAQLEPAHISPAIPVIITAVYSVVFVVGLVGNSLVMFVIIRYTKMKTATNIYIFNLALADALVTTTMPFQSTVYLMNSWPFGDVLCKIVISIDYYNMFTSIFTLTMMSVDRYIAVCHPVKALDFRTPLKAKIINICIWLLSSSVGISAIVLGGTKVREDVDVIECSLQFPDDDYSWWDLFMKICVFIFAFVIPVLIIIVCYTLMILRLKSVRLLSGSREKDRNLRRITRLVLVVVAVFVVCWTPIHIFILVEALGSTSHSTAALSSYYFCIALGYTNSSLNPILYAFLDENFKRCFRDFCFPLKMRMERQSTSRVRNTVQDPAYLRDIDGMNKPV
Chain of Mitogen-activated protein kinase 14 (Homo sapiens) (Q16539 whole entry): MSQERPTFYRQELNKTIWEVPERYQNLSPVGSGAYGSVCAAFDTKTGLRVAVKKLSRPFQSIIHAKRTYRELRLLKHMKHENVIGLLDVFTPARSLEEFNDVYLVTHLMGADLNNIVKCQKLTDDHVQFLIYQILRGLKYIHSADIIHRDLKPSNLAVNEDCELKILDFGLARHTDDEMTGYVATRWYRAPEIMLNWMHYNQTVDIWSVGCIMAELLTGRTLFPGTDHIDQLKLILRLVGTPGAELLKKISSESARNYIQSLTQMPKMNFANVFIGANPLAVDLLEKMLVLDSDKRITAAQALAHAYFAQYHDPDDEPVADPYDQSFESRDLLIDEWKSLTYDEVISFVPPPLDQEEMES
Chain of Proto-oncogene tyrosine-protein kinase receptor Ret (Homo sapiens), P07949 [V804M] (P07949 whole entry V804M): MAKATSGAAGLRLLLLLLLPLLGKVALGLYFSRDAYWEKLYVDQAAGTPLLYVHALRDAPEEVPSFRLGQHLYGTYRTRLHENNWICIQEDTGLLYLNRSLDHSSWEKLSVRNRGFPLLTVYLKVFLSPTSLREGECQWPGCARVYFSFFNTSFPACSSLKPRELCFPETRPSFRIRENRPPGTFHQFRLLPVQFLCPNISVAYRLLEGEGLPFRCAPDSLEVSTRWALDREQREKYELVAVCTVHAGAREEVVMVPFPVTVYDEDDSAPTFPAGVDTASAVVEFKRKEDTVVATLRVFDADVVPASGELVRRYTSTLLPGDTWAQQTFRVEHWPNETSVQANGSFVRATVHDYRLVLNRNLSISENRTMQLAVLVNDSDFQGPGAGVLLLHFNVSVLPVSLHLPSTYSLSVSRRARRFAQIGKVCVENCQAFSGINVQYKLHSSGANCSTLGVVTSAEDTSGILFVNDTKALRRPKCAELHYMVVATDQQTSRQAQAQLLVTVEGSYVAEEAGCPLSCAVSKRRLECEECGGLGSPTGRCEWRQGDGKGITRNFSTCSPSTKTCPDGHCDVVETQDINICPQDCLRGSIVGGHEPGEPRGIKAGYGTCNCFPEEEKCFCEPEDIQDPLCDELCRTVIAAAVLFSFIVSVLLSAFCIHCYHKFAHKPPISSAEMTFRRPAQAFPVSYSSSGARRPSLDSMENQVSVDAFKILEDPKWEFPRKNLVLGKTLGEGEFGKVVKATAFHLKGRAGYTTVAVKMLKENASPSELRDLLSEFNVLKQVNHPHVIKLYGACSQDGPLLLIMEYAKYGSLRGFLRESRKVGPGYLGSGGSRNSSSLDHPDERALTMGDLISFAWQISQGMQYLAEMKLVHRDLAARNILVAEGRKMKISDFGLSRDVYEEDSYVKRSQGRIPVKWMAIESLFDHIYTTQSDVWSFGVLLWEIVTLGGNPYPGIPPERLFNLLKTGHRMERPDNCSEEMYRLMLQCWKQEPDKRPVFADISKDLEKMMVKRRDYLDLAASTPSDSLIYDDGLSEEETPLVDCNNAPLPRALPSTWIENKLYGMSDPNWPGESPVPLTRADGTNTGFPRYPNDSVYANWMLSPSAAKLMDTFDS
Chain of Serine/threonine-protein kinase MARK2 (Homo sapiens) (Q7KZI7 whole entry): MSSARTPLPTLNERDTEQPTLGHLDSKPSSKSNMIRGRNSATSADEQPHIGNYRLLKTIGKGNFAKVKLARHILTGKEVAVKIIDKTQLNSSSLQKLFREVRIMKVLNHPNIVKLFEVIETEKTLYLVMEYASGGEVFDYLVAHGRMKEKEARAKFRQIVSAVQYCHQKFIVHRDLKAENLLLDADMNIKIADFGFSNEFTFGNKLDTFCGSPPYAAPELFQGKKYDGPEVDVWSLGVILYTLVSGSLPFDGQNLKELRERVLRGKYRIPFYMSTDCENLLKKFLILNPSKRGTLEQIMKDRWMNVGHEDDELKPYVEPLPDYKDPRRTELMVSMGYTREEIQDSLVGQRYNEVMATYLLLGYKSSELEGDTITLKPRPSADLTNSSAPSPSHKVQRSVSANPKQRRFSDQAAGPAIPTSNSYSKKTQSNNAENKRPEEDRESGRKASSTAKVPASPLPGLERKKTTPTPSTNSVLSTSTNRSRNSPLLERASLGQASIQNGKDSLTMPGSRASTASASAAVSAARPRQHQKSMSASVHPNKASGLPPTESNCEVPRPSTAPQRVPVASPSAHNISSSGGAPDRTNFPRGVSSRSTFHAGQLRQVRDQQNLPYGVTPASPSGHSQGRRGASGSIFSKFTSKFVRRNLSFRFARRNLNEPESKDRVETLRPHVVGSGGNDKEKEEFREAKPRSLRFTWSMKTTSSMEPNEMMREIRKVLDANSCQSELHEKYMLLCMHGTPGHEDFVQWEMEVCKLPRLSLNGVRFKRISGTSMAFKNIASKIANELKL
Chain of Myosin light chain kinase family member 4 (Homo sapiens) (Q86YV6 whole entry): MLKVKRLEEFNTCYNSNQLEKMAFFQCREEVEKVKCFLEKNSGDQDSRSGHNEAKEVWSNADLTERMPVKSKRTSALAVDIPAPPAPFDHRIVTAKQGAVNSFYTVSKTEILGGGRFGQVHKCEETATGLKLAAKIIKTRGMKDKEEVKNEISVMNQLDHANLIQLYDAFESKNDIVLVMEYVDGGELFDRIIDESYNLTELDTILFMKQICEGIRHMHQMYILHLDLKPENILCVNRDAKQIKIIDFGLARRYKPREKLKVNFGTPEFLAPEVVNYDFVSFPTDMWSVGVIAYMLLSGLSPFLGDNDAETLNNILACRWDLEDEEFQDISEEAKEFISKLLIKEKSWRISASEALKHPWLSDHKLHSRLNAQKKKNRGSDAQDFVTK

## CNC(=O)Nc1ccc2c(c1)CC[C@@]21OC(=O)N(CC(=O)N(Cc2ccc(F)cc2)[C@@H](C)C(F)(F)F)C1=O [A-485]
[1]
  inhibition at 10 µM: 2% (not active)
[2]
  inhibition: -9%
[3]
  residual activity: 87%
[4]
  residual activity: 88%
[5]
  residual activity: 68%
[6]
  residual activity: 100%
[7]
  residual activity: 72%
[8]
  residual activity: 94%
[9]
  residual activity: 91%
[10]
  residual activity: 91%
[11]
  residual activity: 86%
[12]
  residual activity: 97%
[13]
  residual activity: 83%
[14]
  residual activity: 96%
[15]
  residual activity: 97%
[16]
  residual activity: 87%
[17]
  residual activity: 94%
[18]
  residual activity: 94%
[19]
  residual activity: 95%
[20]
  residual activity: 100%
[21]
  residual activity: 100%
[22]
  residual activity: 91%
[23]
  residual activity: 88%
[24]
  residual activity: 100%
[25]
  residual activity: 68%
[26]
  residual activity: 87%
[27]
  residual activity: 100%
[28]
  residual activity: 90%
[29]
  residual activity: 70%
[30]
  residual activity: 88%
[31]
  residual activity: 100%
[32]
  residual activity: 91%
[33]
  residual activity: 80%
[34]
  residual activity: 100%
[35]
  residual activity: 97%
[36]
  residual activity: 100%
[37]
  residual activity: 98%
[38]
  residual activity: 84%
[39]
  residual activity: 82%
[40]
  residual activity: 88%
[41]
  residual activity: 78%
[42]
  residual activity: 93%
[43]
  inhibition: 18.5%
[44]
  inhibition: 20.7%

## CNC(=O)Nc1ccc2c(c1)[C@@]1(CC2)OC(=O)N(CC(=O)N(Cc2ccc(F)cc2)[C@@H](C)C(F)(F)F)C1=O [A-486]
[1]
  inhibition at 10 µM: -5% (not active)
[2]
  inhibition: 6%
[3]
  residual activity: 73%
[4]
  residual activity: 84%
[5]
  residual activity: 77%
[6]
  residual activity: 100%
[7]
  residual activity: 99%
[8]
  residual activity: 100%
[9]
  residual activity: 100%
[10]
  residual activity: 100%
[11]
  residual activity: 66%
[12]
  residual activity: 100%
[13]
  residual activity: 84%
[14]
  residual activity: 94%
[15]
  residual activity: 100%
[16]
  residual activity: 79%
[17]
  residual activity: 85%
[18]
  residual activity: 95%
[19]
  residual activity: 100%
[20]
  residual activity: 85%
[21]
  residual activity: 94%
[22]
  residual activity: 87%
[23]
  residual activity: 90%
[24]
  residual activity: 100%
[25]
  residual activity: 100%
[26]
  residual activity: 100%
[27]
  residual activity: 100%
[28]
  residual activity: 85%
[29]
  residual activity: 100%
[30]
  residual activity: 100%
[31]
  residual activity: 100%
[32]
  residual activity: 100%
[33]
  residual activity: 80%
[34]
  residual activity: 100%
[35]
  residual activity: 89%
[36]
  residual activity: 100%
[37]
  residual activity: 100%
[38]
  residual activity: 100%
[39]
  residual activity: 83%
[40]
  residual activity: 100%
[41]
  residual activity: 100%
[42]
  residual activity: 79%
[43]
  inhibition: 8.21%
[44]
  inhibition: 8.88%
